According to patent publication US20050038113A1, “Valproic acid and derivatives for the combinatorial therapeutic treatment of human cancers and for the treatment of tumor metastasis and minimal residual disease” (G2M Cancer Drugs AG, priority 2001, published 2005):

What was measured:
[1] = tested on: MCF-7 estrogen-dependent breast cancer cells; experiment: SRB-assay, reduction in total cellular biomass; assay type: cell-based, human
Experimental: (§1) The reduction in cellular biomass was measured by SRB-assay. For this assay cells were seeded in 96 well culture dishes at densities between 3000 and 8000 cells per well. […] Cultures were fixed with cold TCA producing a final TCA concentration of 10%. After 1 hour of incubation at 4° C. the cells were washed five times with water and air dried. Fixed cells were stained for 30 minutes with 0,4% (wt/vol) Sulforhodamine B (SRB) dissolved in 1% acetic acid and washed four times with 1% acetic acid to remove unbound dye. After air drying bound dye was solubilized with 10 mM unbuffered Tris base (pH 10,5) for 5 minutes. Optical densities were read on a Titertek Multiskan Plus spectrophotometric plate reader at 550 nm. Six test wells for each dose-response were set in parallel with 12 growth control wells per cell line. A measure of the cell population density at time 0 (To; the time at which the drug was added) was also made from 12 extra reference wells of cells fixed with TCA just prior to drug addition to the test plates. Background OD of complete medium with 5% FBS fixed and stained as described above was also determined in 12 separate wells. From the unprocessed OD data from each microtiter plate the background OD measurements (i.e. OD of complete medium plus stain and OD of cells at T0) were subtracted thus giving the reduction of cellular biomass of the cells.
(§2) The effect on the reduction in total cellular biomass was measured by SRB-assay (see example 1 for assay and read-out procedure details).
(§3) Results using MCF-7 estrogen-dependent breast cancer cells are presented in FIG. 18 and using DU-145 prostate cancer cells in FIG. 19. […] The effect on cell growth was measured by SRB-assay as described in example 1.

[2] = tested on: DU-145 prostate cancer cells; experiment: SRB-assay, reduction in total cellular biomass; assay type: cell-based, human
Experimental: as §1, §2, §3

[3] = dose finding experiment, VPA serum levels; assay type: in vivo, rat; conditions: chosen dosage protocol
Experimental: (§4) MT450 cells were grown in DMEM/W10% FCS medium and tested for absence of mycoplasms just prior to injection. Cells were washed twice in PBS and suspended to a density of 5×10^6 cells per ml of PBS. 5×10^5 cells in 0.1 ml of PBS were injected into each rat. […] Rats were left to grow primary tumors for 21 days. […] The solution was sterile filtered. The compound was applied by i.p. injection. […] Two doses per day were applied. Control animals received equal amounts of a sterile isotonic sodium chloride solution.
(§5) The experiment was terminated when tumor size in one of the rats of the control group had reached the legal limit of 50 mm. Necropsy at that time was performed on all rats of the experiment to assess lung metastasis. […] Metastasis was also found in 7 out of 8 VPA-treated rats. However, size and number of metastases were much smaller compared to NaCl-treated rats. A dose finding experiment had shown that the chosen dosage protocol lead to high initial serum levels (e.g. 3.6 mM at 1 hour after i.p. injection) which rapidly dropped (e.g. 0.25 mM at 4 hours after i.p. injection) below those levels which are maintained during therapy of epilepsy in human.

[4] = used as an antiepileptic drug during pregnancy; cited from earlier work
human endothelial cells = experiment: endothelial cell activation (anti-angiogenesis); assay type: cell-based; conditions: VPA and inhibitors of VEGF-R tyrosine kinase activity at the same time, vs individual drugs alone
Experimental: In addition, the effect of inhibitors of vascular endothelial growth factor receptor (VEGF-R) tyrosine kinase activity was tested on these cells since VEGF-R inhibitors are known to act anti-angiogenic in model systems of tumor-associated endothelial cell activation (e.g. vascular tube formation and/or endothelial cell activation).

Renca-lacZ cells = experiment: in vivo mouse model of renal carcinoma lung metastasis (X-Gal staining); set-up: species or system Balb/c mice; conditions: 2×400 mg/kg/day i.p. Na-VPA; Renca-lacZ cells into tail vein; vs glucose solution
Excerpt: Mouse renal carcinoma cells (Renca) were established from a spontaneously arising kidney tumor in Balb/c mice. These cells efficiently form tumors in the lung upon transplantation into Balb/c mice through the tail vein and the tumorigenic properties of Renca cells have been well established (Murphy, et al., 1973, J. Natl. Cancer Inst., 50: 1013-1025; Hrushesky et al., 1973, J. Surg. Res., 15: 327-332; Williams et al., 1981, Res. Comm. Chem. Pathol. Pharmacol., 34: 345-349). The circulating tumor cells in this model setting represent a mimicry of situations frequently found in tumor patients when residual tumor cells are circulating in a patient's body and finally invade and home in various organs to grow as metastatic tumors. The inhibition of such minimal residual tumor diseases is one of the major aims of modern tumor therapy and can be experimentally examined in the in vivo model used here. Renca cells and the transfected cell clone Renca-lacZ (encoding for β-galactosidase) were grown in RPMI-1640 supplemented with 10% fetal calf serum (FCS). For metastasis formation in recipient mice […] Renca-lacZ cells in 100 μl PBS were injected into the lateral tail vein of female Balb/c mice at 4 to 6 weeks of age. […] Metastatic surface nodules were analyzed under a dissecting microscope and representative pictures were taken and are presented in FIG. 9.

histone deacetylases = conditions: cited from earlier work
[5] = tested on: MT450 breast cancer cells; experiment: MT450 rat breast cancer model, subcutaneous tumor growth and lung metastasis; assay type: in vivo
Experimental: as §4, §5

[6] = VPA in combination with 100 nM 1α,25 Dihydroxyvitamin D3, 48 hours, vs either alone

CCCC(CCC)C(=O)O [VPA, 2-propylpentanoic acid]
reduction in cellular biomass ([1]; 0.75 mM VPA in combination with Paclitaxel, 48 hours, compared to either alone): clear additive reduction in cellular biomass | effect of the combination treatment ([1]; VPA in combination with 100 nM 1α,25 Dihydroxyvitamin D3, 48 hours): slight synergistic effect | reduction in cellular biomass [1, 6]: at least additive reduction in cellular biomass | reduction of cellular biomass ([2]; 1 mM VPA in combination with lower concentrations of cis Platinum, 48 hours): synergistic reduction of cellular biomass | reduction in cellular biomass [2, 6]: at least additive reduction in cellular biomass | serum level ([3]; 1 hour after i.p. injection): 3.6 mM | serum level ([3]; 4 hours after i.p. injection): 0.25 mM | birth defects (neural tube closure defects and other malformations) in born children [4]: a few percent | activation of endothelial cells (human endothelial cells): at least additive effect | formation of lung metastasis (number and size of metastatic nodules) (Renca-lacZ cells): effectively inhibited the formation of lung metastasis | histone deacetylase inhibition (histone deacetylases): acts as an inhibitor of histone deacetylases | size and number of metastases compared to NaCl-treated rats ([5]; 1.25 mmol VPA per kg BW i.p., two doses per day): much smaller | growth of the primary tumors (tumor volume) ([5]; 1.25 mmol VPA per kg BW i.p., two doses per day, vs sodium chloride solution): delays tumor expansion | rats with lung metastasis at necropsy ([5]; VPA-treated rats, 1.25 mmol/kg i.p. twice daily, all rats of the control group showed metastasis): 7 out of 8
